{
  "source": "patent US20090149506A1",
  "about": "“INSECTICIDAL COMPOSITIONS WITH IMPROVED EFFECT” (Bayer CropScience AG, priority 2005, published 2009)",
  "key": {"[1]": {"system": "cotton aphid (Aphis gossypii)", "test": "Aphis gossypii test (APHIGO), spray treatment of infested cotton leaves", "assay_type": "in vivo", "conditions": "0.8 ppm, after 6 d, spray on cotton leaves (Gossypium hirsutum); 100% = all aphids killed, 0% = none killed", "experimental": "Aphis gossypii Test (APHIGO)\n(§1) To produce a suitable preparation of active compound, 1 part by weight of active compound is mixed with the stated amounts of solvent and emulsifier, and the concentrate is diluted with emulsifier-containing water to the desired concentration. If addition of ammonium salts or ammonium salts and penetrant is required, the appropriate amount is added by pipette after dilution of the respective finished preparation solution.\nCotton leaves (Gossypium hirsutum) which are heavily infested by the cotton aphid (Aphis gossypii) are sprayed with an active compound preparation of the desired concentration.\n(§2) After the desired period of time, the kill in % is determined. 100% means that all aphids have been killed; 0% means that none of the aphids have been killed.\n(§3) In this test, for example, the following embodiments of the invention show good activity: see table below"}, "[2]": {"system": "Green peach aphid (Myzus persicae)", "test": "Myzus persicae test (MYZUPE), spray treatment of infested bell pepper plants", "assay_type": "in vivo", "conditions": "0.8 ppm, after 6 d, spray on bell pepper plants (Capsicum annuum); 100% = all aphids killed, 0% = none killed", "experimental": "Myzus persicae Test (MYZUPE)\nas §1\nBell pepper plants (Capsicum annuum) which are heavily infested by the Green peach aphid (Myzus persicaei) are treated by spraying with the active compound preparation of the desired concentration.\nas §2, §3"}},
  "data": [
    {"smiles": "CNC(=O)c1cc(Cl)cc(C)c1NC(=O)c1cc(Br)nn1-c1ncccc1Cl", "note": "[Example I-1-3]", "values": [
      {"measurement": "kill in % (% 6 d)", "setting": "[1]", "value": 0, "unit": "%"},
      {"measurement": "kill in % (% 6 d)", "setting": "[2]", "value": 0, "unit": "%"}
    ]}
  ]
}
